Like-named read-outs stand apart in the source and are kept apart here. Each block holds one molecule with its values, some of them ahead of it.
Tests used:
MC65 cells [1] = experiment: Neuroprotection assay in MC65 cells (−TC, MTT); conditions: for EC50: read-out: EC50 for neuroprotection of MC65 cells
Protocol: MC65 cells were washed twice with PBS, resuspended in Opti-MEM, and seeded in 96-well plates (4×10^4 cells/well). Indicated compounds were then added, and cells were incubated at 37° C. under +TC or −TC conditions for 72 h. Then, 10 μL of MTT (5 mg/mL in PBS) were added and the cells were incubated for another 4 h. Cell medium was then removed, and the remaining formazan crystals produced by the cellular reduction of MTT were dissolved in DMSO. Absorbance at 570 nm was immediately recorded using a FlexStation® 3 plate reader (Molecular Devices, CA).

Aβ42 = molecular target: T1, Aβ42 (Homo sapiens, UniProt P05067); experiment: Thioflavin T assay of Aβ42 fibril formation; assay type: biochemical; conditions: 10 μM compound, Aβ42 25 μm, 48 h, ThT; read-out: inhibition of the formation of Aβ42 fibrils
T1 construct: purchased American Peptide, Inc. (Sunnyvale, Calif.)
Protocol: Briefly, 1 μL of each compound solution in DMSO (0.01 μM to 100 μM) was added to corresponding wells in a 96-well plate. Each concentration was prepared in independent triplicates and a solvent control was included. To each well, 9 μL of 25 μM Aβ42 in PBS (pH 7.4) was added, and then plates were incubated in dark at room temperature for 48 h. Next, 200 μL of a 5 μM ThT in 50 mM glycine solution (pH 8.0) was added to each well.

HT22 cells = experiment: Hydrogen peroxide toxicity assay in HT22 cells; assay type: cell-based, mouse; conditions: 24 h
Protocol: HT22 cells were seeded in 96-well plates (4×10^3 cells/well) in growth medium and incubated for 24 h at 37° C. The medium was removed and compounds were added at the indicated concentrations in fresh growth medium, and the cells were incubated for another 1 h. H2O2 was then added at a final concentration of 500 μM, and the plates were then incubated for 24 h. Cell viability was assessed by MTT assay as previously described. Values were expressed as a percentage relative to the negative (H2O2-free) control.

in vitro = conditions: for Papp: PAMPA
Protocol: In the same assay, 10 commercial drugs with known CNS penetration were also tested as positive controls, and their experimental values were compared to reported values (Table 1).

[2] = background statement; cited from earlier work
[3] = test system: intracellular oxidative stress in MC65 cells; experiment: ROS production assay in MC65 cells (DCFH-DA); assay type: cell-based; conditions: −TC, 48 h, DCFH-DA 25 μM, read-out: IC50 for suppression of intracellular oxidative stress
Protocol: Cells were harvested, washed twice with cold PBS, then suspended in PBS and incubated with DCFH-DA (25 μM) in dark for 1 h. Fluorescence was analyzed by flow cytometry using a Millipore Guava® easyCyte flow cytometer.

[4] = test system: amyloid-β oligomers (AβOs) in MC65 cells; experiment: Western blot (6E10) of AβOs production in MC65 cells; assay type: cell-based; conditions: MC65 cells after removal of TC, 6E10 antibody
Protocol: MC65 cells (4×10^5 cells/mL) were treated with indicated compounds for 30 h and then were lysed by sonication in a Tricine buffer solution and boiled for 5 min. Protein samples were collected from the supernatant after centrifugation of the samples at 12,800×g for 5 min, and then quantified using the Bradford method. Equal amounts of protein (20.0 μg) were separated by SDS-PAGE on a gel (Bio-Rad) and transferred onto a PVDF membrane (Bio-Rad). The blots were blocked with 5% milk in TBS-Tween 20 (0.1%) solution at room temperature for 1 h and then probed with the 6E10 antibody overnight at 4° C. The blots were washed twice in TB S-Tween 20 for 15 min, and then incubated with a 1:1000 dilution of horseradish peroxidase-conjugated secondary antibody in a 5% milk/PBS-Tween 20 solution at room temperature for 1 h. After washing twice in TBS-Tween 20 for 15 min, the proteins were visualized by a Western Blot Chemiluminescence Reagent (Thermo Fischer Scientific, Waltham, Mass.). The blots were also probed with antibodies against α-tubulin to ensure equal loading of proteins.

MC65 cells [5] = experiment: Cytotoxicity in MC65 cells under normal growth conditions (+TC), MTT; assay type: cell-based; conditions: 72 h
Protocol: FIG. 7A-D. Effects on viability of TRO19622, Mito-TEMPO and 7 in MC65 cells. A. MC65 cells were treated with Mito-TEMPO or TRO-19622 at indicated concentrations under normal growth conditions (+TC) for 72 h. Cell viability was assessed by MTT assay. Data were expressed as mean percentage viability (n=3) with parallel +TC cultures set at 100% viability. Error bars represent SEM. B. MC65 cells were treated with Mito-TEMPO at indicated concentrations under −TC conditions for 72 h. Cell viability was assessed by MTT assay. Data were expressed as mean percentage viability (n=3) with parallel +TC cultures set at 100% viability. C. MC65 cells were treated with TRO-19622 at indicated concentrations under −TC conditions for 72 h. Cell viability was assessed by MTT assay. Data were expressed as mean percentage viability (n=3) with parallel +TC cultures set at 100% viability. D. MC65 cells were treated with 7 or Mito-TEMPO at indicated concentrations for 2 h before addition of rotenone for 48 h. Cell viability was assessed by MTT assay. Data were expressed as mean percentage viability (n=3) with parallel +TC cultures set at 100% viability. […]

MC65 cells [6] = experiment: Rotenone protection assay in MC65 cells; assay type: cell-based; conditions: 10 μM, 48 h
Protocol: The medium was removed and compounds were added at the indicated concentrations in fresh growth medium, and the cells were incubated for another 2 h. Rotenone was then added at a final concentration of 10 μM, and the plates were then incubated for 48 h. Cell viability was assessed by MTT assay.

T1 sequence (P05067 672-713 limits assumed): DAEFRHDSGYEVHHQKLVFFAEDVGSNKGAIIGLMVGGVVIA

inhibition at 10 µM (Aβ42): 27.3%
SMILES: COc1cc(/C=C/C(=O)CC(=O)/C=C/c2ccc(O)c(OC)c2)ccc1O [Compound 1, Curcumin]
neuroprotection of MC65 cells from −TC induced cell death (MC65 cells [1]; 0.3 μM, −TC, 72 h, MTT): no neuroprotection
neuroprotection at much higher concentrations (data not shown) (MC65 cells [1]; 3 and 10 μM, −TC): moderate neuroprotection

SMILES: Cc1c(C)c2c(c(C)c1O)CCC(C)(C(=O)O)O2 (centres unmarked) [Trolox, 6-hydroxy-2,5,7,8-tetramethyl chroman-2-carboxylic acid]
protection from H2O2-induced cytotoxicity (HT22 cells; 300 μM, H2O2 500 μM): full rescue

Papp (in vitro): 25.1 ± 1.4 ×10⁻⁶ cm/s
SMILES: CN(C)CCCN1c2ccccc2Sc2ccccc21 [Promazine, reference compound]

SMILES: COc1ccc2[nH]cc(CCNC(C)=O)c2c1 [Compound 2, Melatonin]
neuroprotection of MC65 cells from −TC induced cell death (MC65 cells [1]; 0.3 μM, −TC, 72 h, MTT): no neuroprotection
half-life [2]: < 30 min

SMILES: COc1ccc2[nH]cc(CCNC(=O)CC(=O)/C=C/c3ccc(O)c(OC)c3)c2c1 [Compound 3]
increase in cell viability (MC65 cells [1]; 0.3 μM, −TC, 72 h): ~61%
EC50 (MC65 cells [1]; −TC conditions, 72 h, MTT): 0.134 ± 0.0045 µM
Permeability Pe (exp.) (in vitro; PBS:EtOH (70:30), mean ± SD of 3 independent experiments): 6.5 ± 0.6 10^−6 cm s^−1
Prediction of penetration in the CNS (in vitro; from Pe (exp.) and correlation with reported values): CNS− (compounds with Pe<8.1×10^−6 cm s^−1 will have low BBB permeability by passive diffusion)

Papp (in vitro): 6 ± 0.3 ×10⁻⁶ cm/s
SMILES: CN1C(C(=O)Nc2ccccn2)=C(O)c2ccccc2S1(=O)=O [Piroxicam, reference compound]

IC50 [3]: ~0.063 µM
Papp (in vitro): 5.9 ± 0.4 ×10⁻⁶ cm/s
SMILES: COc1ccc2[nH]cc(CCNC(=O)CC(=O)/C=C/c3ccc(O)cc3)c2c1 [Compound 5]
neuroprotection of MC65 cells from −TC induced cell death (MC65 cells [1]; 0.3 μM, −TC, 72 h, MTT): significant neuroprotection
EC50 (MC65 cells [1]; MC65, 72 h): 0.0231 ± 0.00523 µM
effect on the production of AβOs (tetramers, pentamers, heptamers) [4]: dose-dependently suppressed

SMILES: OO [Compound H2O2, H2O2]
HT22 cell death (HT22 cells; 500 μM): ~58%

SMILES: CC1(C)CC(NC(=O)C[P+](c2ccccc2)(c2ccccc2)c2ccccc2)CC(C)(C)N1[O] [Mito-TEMPO, reference compound]
protection from −TC induced cytotoxicity (MC65 cells [1]; indicated concentrations, maximum 10 μM, −TC, 72 h): dose-dependently protected
toxic effects in MC65 cells under +TC (MC65 cells [5]; up to 10 μM): did not show toxic effects

SMILES: C=C(C)[C@H]1Cc2c(ccc3c2O[C@@H]2COc4cc(OC)c(OC)cc4[C@@H]2C3=O)O1 [rotenone, reference compound]
cell death of MC65 cells (MC65 cells [6]): 75.6%

SMILES: COc1ccc2[nH]cc(CCNC(=O)CC(=O)C=Cc3ccc(N(C)C)cc3)c2c1 [AM14]
protection compared to −TC control (MC65 cells [1]; 0.3 μM, −TC, 72 h): ~0.20%

SMILES: COc1ccc2[nH]cc(CCNC(=O)CC(=O)C=Cc3ccncc3)c2c1 [AM6]
protection compared to −TC control (MC65 cells [1]; 0.3 μM, −TC, 72 h): ~33%

SMILES: COc1ccc2[nH]cc(CCNC(=O)CC(=O)C=Cc3ccco3)c2c1 [AM4]
neuroprotection of MC65 cells from −TC induced cell death (MC65 cells [1]; 0.3 μM, −TC, 72 h, MTT): did not show neuroprotection

SMILES: CC(C)CCC[C@@H](C)[C@H]1CC[C@H]2[C@@H]3CCC4=CC(=NO)CC[C@]4(C)[C@H]3CC[C@]12C [TRO-19622, reference compound]
protection from −TC induced cytotoxicity (MC65 cells [1]; up to 25 μM, −TC, 72 h): did not show significant protection
cytotoxicity in MC65 cells under +TC (MC65 cells [5]; up to 25 μM): did not show cytotoxicity

SMILES: COc1ccc2[nH]cc(CCNC(=O)CC(=O)C=Cc3ccoc3)c2c1 [AM5]
protection compared to −TC control (MC65 cells [1]; 0.3 μM, −TC, 72 h): ~48%

SMILES: COc1cccc(C=CC(=O)CC(=O)NCCc2c[nH]c3ccc(OC)cc23)c1 [Compound 4]
neuroprotection of MC65 cells from −TC induced cell death (MC65 cells [1]; 0.3 μM, −TC, 72 h, MTT): complete loss of neuroprotection

SMILES: COc1ccc2[nH]cc(CCNC(=O)CC(=O)C=Cc3ccc4c(c3)OCO4)c2c1 [ZSJ-II-126]
neuroprotection of MC65 cells from −TC induced cell death (MC65 cells [1]; 0.3 μM, −TC, 72 h, MTT): diminished protection

From US9738605B2, “Hybrid compounds of curcumin and melatonin as neuroprotectants for neurodegenerative disorders” (VIRGINIA COMMONWEALTH UNIVERSITY, priority 2013, dated 2017)
